Numbered stars: 1 amine (or outer) side, 2 acyl side, 3 side chain; on linkers, the order of the positions; unused ones are H or OH. Bridge positions count the residues as written; N and C are the ends. Square brackets hold non-standard residues; d marks the D form. Peptide text beside a SMILES is read from it. * marks the point of attachment. hPhe(3,5-F2-4-CF3) = N[C@@H](CCc1cc(F)c(C(F)(F)F)c(F)c1)C(=O)O; hPhe(3-Cl-4-CF3) = N[C@@H](CCc1ccc(C(F)(F)F)c(Cl)c1)C(=O)O; NMePhe(4-CF3) = CN[C@@H](Cc1ccc(C(F)(F)F)cc1)C(=O)O; NMePhe(3,4-F2) = CN[C@@H](Cc1ccc(F)c(F)c1)C(=O)O; NMePhe(4-Cl) = CN[C@@H](Cc1ccc(Cl)cc1)C(=O)O; NMePhe(4-Me) = CN[C@@H](Cc1ccc(C)cc1)C(=O)O; X10 = C#Cc1cccc(C[C@H](N[*:1])C(=O)[*:2])c1; NMePhe(4-F) = CN[C@@H](Cc1ccc(F)cc1)C(=O)O; Pro(4,4-F2) = O=C(O)[C@@H]1CC(F)(F)CN1; NMeCha = CN[C@@H](CC1CCCCC1)C(=O)O; NMeAhp(2) = CCCCC[C@H](NC)C(=O)O; NMeI = CC[C@H](C)[C@H](NC)C(=O)O; NMeD = CN[C@@H](CC(=O)O)C(=O)O; NMeL = CN[C@@H](CC(C)C)C(=O)O; NMeV = CN[C@H](C(=O)O)C(C)C; d(β3hA) = C[C@@H](N)CC(=O)O; NMeS = CN[C@@H](CO)C(=O)O; Morpholide = C1CN(*)CCO1; NMeA = CN[C@@H](C)C(=O)O; NMeAib = CNC(C)(C)C(=O)O; Nle = CCCC[C@H](N)C(=O)O; Piperidide = C1CCN(*)CC1; Pyrrolidide = C1CCN(*)C1; dNMeA = CN[C@H](C)C(=O)O; Ac5c = NC1(C(=O)O)CCCC1; Aze = O=C(O)[C@@H]1CCN1; CH2CMe2OH = CC(C)(O)C*; Aib = CC(C)(N)C(=O)O; Isopentyl = CC(C)CC*; NEtG = CCNCC(=O)O; Sar = CNCC(=O)O
Tests used:
[1] = target: protein-protein interaction between Kras and SOS1 (biotin-tagged human Kras loaded with GDP, His-tagged human SOS1) (Homo sapiens (Human), UniProt P01116, G12D); assay: Protein-protein interaction inhibition between Kras and SOS1 (KrasG12D-SOS PPI) using AlphaScreen; type: biochemical; details: AlphaScreen; biotin-tagged human Kras loaded with GDP, His-tagged human SOS1; read-out: KRAS G12D-SOS PPI IC50;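 also: kras produced in E. coli, Ni-coupled donor beads and streptavidin acceptor beads, excitation 680 nm with emission detected at 520–620 nm via singlet oxygen transfer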
[2] = tested on: Human pancreatic cancer cell line AsPC-1 (G12D mutation Kras); assay: AsPC-1 cell growth inhibition (AsPC-1 CGI); type: cell-based; details: read-out: AsPC-1 cell growth inhibition, 50% growth inhibitory concentration (IC50 value); 96 hours, CellTiter-Glo, values classified in ranges
Method: Test compounds were serially dilated with dimethyl sulfoxide, and 200 nL was then dispensed to a U-bottom 96-well plate using Labcyte Echo. […] The cell suspension was dispensed to a. plate containing a test compound at 100 μL per well and incubated at 37° C. in a 5% carbon dioxide gas incubator. 96 hours later, 80 μL of CellTiter-Glo (Promega) was added to each well and fluorescence was measured.

SMILES | IC50 [1] | IC50 [2]
CCCCC[C@H]1C(=O)N[C@@H]([C@@H](C)CC)C(=O)N[C@@H](C)C(=O)N2CC[C@H]2C(=O)N(C)[C@@H](Cc2ccc(C(F)(F)F)cc2)C(=O)N(C)CC(=O)N[C@@H](CCc2ccc(C(F)(F)F)c(Cl)c2)C(=O)N2CCC[C@H]2C(=O)NC2(CCCC2)C(=O)N(C)[C@@H]([C@@H](C)CC)C(=O)N(C)[C@H](C(=O)N2CCCC2)CC(=O)N1C [Compound 209] ([NMeAhp(2)]IA[Aze][NMePhe(4-CF3)][Sar][hPhe(3-Cl-4-CF3)]P[Ac5c][NMeI][NMeD]-Pyrrolidide; lactam N-11) | 1.6 nM | ≤ 20 nM
C#Cc1cccc(C[C@@H]2NC(=O)CN(C)C(=O)[C@H](Cc3ccc(Cl)cc3)N(C)C(=O)CN(C)C(=O)CN(C)C(=O)[C@H]([C@@H](C)CC)NC(=O)[C@H](CC(C)C)N(C)C(=O)C[C@@H](C(=O)N3CCCCC3)N(C)C(=O)[C@H](CC(C)C)NC(=O)C(C)(C)N(C)C(=O)[C@H](CCCC)NC2=O)c1 [Compound 2142, (3S,9S,12S,18S,27S,30S,34S)-9-butyl-18-[(4-chlorophenyl)methyl]-12-[(3-ethynylphenyl)methyl]-3,30-diisobutyl-1,6,6,7,16,19,22,25,31-nonamethyl-27-[(1S)-1-methylpropyl]-34-(piperidine-1-carbonyl)-1,4,7,10,13,16,19,22,25,28,31-undecazacyclotetratriacontane-2,5,8,11,14,17,20,23,26,29,32-undecone] ([NMeL]I[Sar][Sar][NMePhe(4-Cl)][Sar][X10][Nle][NMeAib]L[NMeD]-Piperidide; lactam N-11) | 44 nM | > 500 nM
CC[C@H](C)[C@@H]1NC(=O)[C@H](CC(C)C)N(C)C(=O)C[C@@H](C)NC(=O)[C@H](CC(C)C)N(C)C(=O)C(C)(C)NC(=O)[C@H](COCC(C)(C)O)N(C)C(=O)[C@H](CCc2ccc(C(F)(F)F)c(Cl)c2)NC(=O)CN(C)C(=O)[C@H](COCCC(C)C)N(C)C(=O)CN(C)C(=O)CN(CC)C1=O [Compound 1519] (cyclo([Aib][NMeL][d(β3hA)][NMeL]I[NEtG][Sar][NMeS](Isopentyl)[Sar][hPhe(3-Cl-4-CF3)][NMeS](CH2CMe2OH))) | 120 nM | > 500 nM
CC[C@H](C)[C@@H]1NC(=O)[C@H](CC(C)C)N(C)C(=O)C[C@@H](C(=O)N2CCOCC2)N(C)C(=O)[C@H]([C@@H](C)CC)N(C)C(=O)C2(CCCC2)NC(=O)[C@@H]2CC(F)(F)CN2C(=O)[C@H](CCc2cc(F)c(C(F)(F)F)c(F)c2)NC(=O)CN(C)C(=O)[C@H](Cc2ccc(C(F)(F)F)cc2)N(C)C(=O)[C@@H]2CCN2C(=O)[C@H](C)N(C)C1=O [Compound 1348] ([NMeL]I[NMeA][Aze][NMePhe(4-CF3)][Sar][hPhe(3,5-F2-4-CF3)][Pro(4,4-F2)][Ac5c][NMeI][NMeD]-Morpholide; lactam N-11) | 0.62 nM | ≤ 20 nM
CC[C@H](C)[C@@H]1NC(=O)[C@H](C)N(C)C(=O)C[C@@H](C(=O)N2CCCCC2)N(C)C(=O)[C@H](C(C)C)N(C)C(=O)C2(CCCC2)NC(=O)[C@@H]2CCCN2C(=O)[C@H](CCc2ccc(C(F)(F)F)c(Cl)c2)NC(=O)[C@@H](C)N(C)C(=O)[C@H](Cc2ccc(F)cc2)N(C)C(=O)[C@@H]2CCN2C(=O)[C@H](C)N(C)C1=O [Compound 1816] ([NMeA]I[NMeA][Aze][NMePhe(4-F)][dNMeA][hPhe(3-Cl-4-CF3)]P[Ac5c][NMeV][NMeD]-Piperidide; lactam N-11) | 12 nM | > 500 nM
CC[C@H](C)[C@@H]1NC(=O)[C@H](C)N(C)C(=O)C[C@@H](C(=O)N2CCCCC2)N(C)C(=O)[C@H](C(C)C)N(C)C(=O)C2(CCCC2)NC(=O)[C@H](Cc2ccc(F)c(F)c2)N(C)C(=O)[C@H](CCc2ccc(C(F)(F)F)c(Cl)c2)NC(=O)CN(C)C(=O)[C@H](CC2CCCCC2)N(C)C(=O)CN(C)C(=O)CN(C)C1=O [Compound 171] ([NMeA]I[Sar][Sar][NMeCha][Sar][hPhe(3-Cl-4-CF3)][NMePhe(3,4-F2)][Ac5c][NMeV][NMeD]-Piperidide; lactam N-11) | 14 nM | > 500 nM
CC[C@H](C)[C@@H]1NC(=O)[C@H](C)N(C)C(=O)C[C@@H](C(=O)N2CCCCC2)N(C)C(=O)[C@H](C(C)C)N(C)C(=O)C2(CCCC2)NC(=O)[C@H](Cc2ccc(C)cc2)N(C)C(=O)[C@H](CCc2ccc(C(F)(F)F)c(Cl)c2)NC(=O)CN(C)C(=O)[C@H](CC2CCCCC2)N(C)C(=O)CN(C)C(=O)CN(C)C1=O [Compound 346] ([NMeA]I[Sar][Sar][NMeCha][Sar][hPhe(3-Cl-4-CF3)][NMePhe(4-Me)][Ac5c][NMeV][NMeD]-Piperidide; lactam N-11) | 11 nM | > 500 nM
CC[C@H](C)[C@@H]1NC(=O)[C@H](CC(C)C)N(C)C(=O)C[C@@H](C(=O)N2CCCCC2)N(C)C(=O)[C@H](C(C)C)N(C)C(=O)C2(CCCC2)NC(=O)[C@H](C)NC(=O)[C@H](CCc2ccc(C(F)(F)F)c(Cl)c2)NC(=O)CN(C)C(=O)[C@H](CC2CCCCC2)N(C)C(=O)CN(C)C(=O)CN(C)C1=O [Compound 156] ([NMeL]I[Sar][Sar][NMeCha][Sar][hPhe(3-Cl-4-CF3)]A[Ac5c][NMeV][NMeD]-Piperidide; lactam N-11) | 0.98 nM | > 500 nM
